Measured values from US20260317304A1, “TEAD INHIBITORS AND METHODS OF USE” (Sporos BioDiscovery, Inc., priority 2022, published 2026).

Key:
[1] = tested on: Mero14 cells; experiment: Mero14 proliferation and cell viability assay (CTG); type: cell-based; conditions: 144 hours
Description: Mero14 cells were trypsinised, counted and plated at 400 cells/well in 200 μl of growth media in 96 well flat bottom tissue culture treated plates. The plated cells were incubated overnight at 37° C., 5% CO2 before being treated with compounds in triplicate for each assay point. 50 μl of the serially diluted compound was added to each well giving a final DMSO concentration of 0.5% per well and a total volume of 250 μl per well. The treated cells were incubated for 144 hours (6 days) at 37° C., 5% CO2. Following compound treatment the remaining viable cells were detected using the Promega CellTiter-Glo 2.0 assay as follows: 150 μl of media was removed from each of the wells to be assayed and 100 μl of room temperature CellTiter-Glo 2.0 reagent was added. The plate was placed on an orbital shaker at 500 rpm at room temperature for 2 minutes, and then incubated without shaking for a further 10 minutes at room temperature. 150 μl of cell lysate was removed from each well and dispensed into a single well of a white opaque 96 well plate. Luminescence at 545 nm was read using a BMG CLARIOstar plate reader. The luminescent signal was directly proportional to number of viable cells, the percent of viable cells relative to the DMSO control was then calculated for each assay point. Percent viability relative to DMSO control is plotted against compound concentration and a curve fitted with non-linear regression in GraphPad Prism software. EC50 and absolute IC50 values were calculated using GraphPad Prism software as follows: For EC50 values, a non-constrained four-parameter logistic curve fit was used (Sigmoidal, 4PL, X is concentration). For Absolute IC50 values the baseline was constrained to Y=0 and top at 100 (Absolute IC50, X is concentration). Area Under the Curve (AUC): Prism computed area-under-the-curve by the trapezoidal method. The analysis sees a fitted curve as simply a series of connected XY points. Prism simply computes the area under the “curve” defined by connecting the points by straight lines. The units of the AUC are the units of the Y axis times units of the X axis.
For EC50 data, the symbol “A” indicates a value of less than 0.2 μM; the symbol “B” indicates a value in the range of from 0.2 μM up to 1 μM; and the symbol “C” indicates a value of greater than 1 μM.

[2] = tested on: LOU-NH91 cells; experiment: LOU-NH91 proliferation and cell viability assay (CTG); type: cell-based; conditions: 216 hours
Description: LOU-NH91 cells were trypsinised, counted and plated at 1000 cells/well in 200 μl of growth media in 96 well flat bottom tissue culture treated plates. The plated cells were incubated overnight at 37° C., 5% CO2 before being treated with compounds in triplicate for each assay point. 50 μl of the serially diluted compound was added to each well giving a final DMSO concentration of 0.5% per well and a total volume of 250 μl per well. The treated cells were incubated for 216 hours (9 days) at 37° C., 5% CO2. Following compound treatment, the remaining viable cells were detected using the Promega CellTiter-Glo 2.0 assay as follows: 150 μl of media was removed from each of the wells to be assayed and 100 μl of room temperature CellTiter-Glo 2.0 reagent was added. The plate was placed on an orbital shaker at 500 rpm at room temperature for 2 minutes, and then incubated without shaking for a further 10 minutes at room temperature. 150 μl of cell lysate was removed from each well and dispensed into a single well of a white opaque 96 well plate. Luminescence at 545 nm was read using a BMG CLARIOstar plate reader. The luminescent signal was directly proportional to number of viable cells, the percent of viable cells relative to the DMSO control was then calculated for each assay point. Percent viability relative to DMSO control was plotted against compound concentration and a curve fitted with non-linear regression in GraphPad Prism software. EC50 and absolute IC50 values were calculated using GraphPad Prism software as follows: For EC50 values a non-constrained four-parameter logistic curve fit was used (Sigmoidal, 4PL, X is concentration). For Absolute IC50 values the baseline was constrained to Y=0 and top at 100 (Absolute IC50, X is concentration). Area Under the Curve (AUC): Prism computes area-under-the-curve by the trapezoidal method. The analysis sees a fitted curve as simply a series of connected XY points. Prism simply computes the area under the “curve” defined by connecting the points by straight lines. The units of the AUC are the units of the Y axis times units of the X axis. […]

[3] = tested on: NCI-H226 cells; experiment: Proliferation and cell viability assay, CellTiter-Glo 2.0 (CTG); type: cell-based, human; conditions: 144 hrs
Description: Cell proliferation of a TEAD dependent NF2-null mesothelioma cell line, NCI-H226 was assayed using two different protocols. Results were confirmed in two different TEAD-non-dependent lung cancer cell lines, H23 and H28, were used as non-responsive controls, as indicated:
a) CellTiter-Glo® 2.0 (Promega #G9243). The effect of the TEAD inhibitors disclosed herein on cell proliferation was determined in TEAD1-genetically dependent cell line NCI-H226 (responder cell line) and TEAD-independent cell lines (NCI-H23, HEK293T), as non-responder, negative control. Cells were seeded in 96-well plates (Thermo Scientific #167008) in growth media (RPMI-1640, Gibco #61870-010) for NCI-H226 and NCI-H23 or DMEM (Gibco #31966-021, HEK293T) with […] Heat Inactivated Fetal Bovine Serum (Gibco 10500-064) at 800 (NCI-H226 and HEK-293T) or 2000 (NCI-H23) cells per well at 37° C., […], humidified incubator; 24 hours later, fresh growth media containing test compound or DMSO vehicle was added and incubated with the cells for 144 hrs. TEAD inhibitor stocks were made at a 1000× fold excess in DMSO, and a dose response test compound dose range of 10,000 to 0.1 nM was used. Each treatment was carried out in triplicate. After 144 hrs of treatment, relative cell viability numbers were determined using the CellTiter-Glo 2.0 assay following the manufacturer's instructions. Test plates and CellTiter-Glo 2.0 reagent were allowed to equilibrate to room temperature. CellTiter-Glo 2.0 reagent was added at 1:1 reagent to media ratio to the 96-well cell plates, plates were placed on a plate shaker for 2 minutes and then incubated at room temperature for a further 10 minutes to allow complete cell lysis to occur. The mix was then transferred to white, 96-well luminometer assay plates (Greiner Bio One #655075). Luminescence was quantified using a CLARIOStar Plus multi-mode plate reader (BMG Labtech) in luminescence detection mode with the recommended settings (ultra-Glo pre-set: emission 545-50 nm with autofocus and enhanced dynamic range on). Relative cell density was expressed as a function of inhibitor concentration, with respect to DMSO-only control wells. Data where plotted using GraphPad Prism and IC50 values for the biological effect were calculated using the EC50 non-linear fit function using a sigmoidal, 4-parameter logistic, least squares fit with no constraints.
For IC50 and EC50 data “A” indicates a value of less than 0.2 μM; the symbol “B” indicates a value in the range of from 0.2 μM up to 1 μM; and the symbol “C” indicates a value of greater than 1 μM. ND: no data.

[4] = Homo sapiens, NCI-H226, responder cell line

Row | Structure (SMILES) | EC50 [1] [nM] | EC50 [2] [nM] | EC50 [3, 4] [nM] | EC50 ([3]; responder cell line) [nM]
1 | C=CC(=O)Nc1ccc(C)c(Oc2ccc(Cl)cc2)c1 [Compound 1-3, reference compound] | < 200 | < 200 | – | –
2 | FC(F)(F)c1ccc(CN2CCC(C3CC(Br)=NO3)CC2)cc1 (centres unmarked) [Compound 1-2, reference compound] | 200 to 1000 | < 200 | – | –
3 | Cn1cnc(-c2cc([C@@]3(C)CCNC3=O)ccc2Nc2ccc(C(F)(F)F)cc2)c1 (single isomer, unassigned) [Compound 5, 3-methyl-3-(3-(1-methyl-1H-imidazol-4-yl)-4-((4-(trifluoromethyl)phenyl)amino)phenyl)pyrrolidin-2-one] | < 200 | < 200 | < 200 | –
4 | Cn1nnc(-c2cc([C@]3(C)CCNC3=O)ccc2Nc2ccc(C(F)(F)F)cc2)n1 (stereo in doubt) [Compound 20, 3-methyl-3-(3-(2-methyl-2H-tetrazol-5-yl)-4-((4-(trifluoromethyl)phenyl)amino)phenyl) pyrrolidin-2-one] | < 200 | – | < 200 | –
5 | Cn1cnc(-c2cc(C3(C)NC(=O)NC3=O)ccc2Nc2ccc(C(F)(F)F)cc2)c1 (single isomer, unassigned) [Compound 15, 5-methyl-5-(3-(1-methyl-1H-imidazol-4-yl)-4-((4-(trifluoromethyl)phenyl)amino)phenyl)imidazolidine-2,4-dione] | < 200 | – | – | < 200
